Measurements taken from patent publication US6352982B1, “4,1-benzoxazepines, their analogues, and their use as somatostatin agonists” (Takeda Chemical Industries, Ltd., priority 1997, dated 2002).
Where a name gives a salt, the structure may show the parent alone.

How the values were obtained:
[1] = target: T1, human somatostatin receptor SSTR2 (Homo sapiens, UniProt P30874); assay: Binding inhibition of 125I-somatostatin, CHO cell membrane fraction; conditions: 125I-somatostatin binding, 25° C. for 60 minutes, read-out: Activities for human somatostatin receptor (IC50 value) SSTR2
T1 construct: expressed in transfected cells; host or cells: CHO (dhfr-) cells, strain SSTR2-HS5-9
T1 sequence (P30874 whole entry): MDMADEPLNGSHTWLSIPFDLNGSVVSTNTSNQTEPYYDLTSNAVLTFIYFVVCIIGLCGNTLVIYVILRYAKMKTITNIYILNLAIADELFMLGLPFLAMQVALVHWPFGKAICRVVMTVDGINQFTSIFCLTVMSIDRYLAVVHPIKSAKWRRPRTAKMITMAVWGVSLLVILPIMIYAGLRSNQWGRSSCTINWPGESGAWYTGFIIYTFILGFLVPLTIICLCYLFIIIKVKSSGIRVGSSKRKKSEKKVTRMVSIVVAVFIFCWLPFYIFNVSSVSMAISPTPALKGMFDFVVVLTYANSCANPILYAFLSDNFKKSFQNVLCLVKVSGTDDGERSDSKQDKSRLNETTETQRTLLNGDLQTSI
Procedure: (§1) A human somatostatin receptor expression CHO cell strain, SSTR1-8-3, SSTR2-HS5-9, SSTR3-15-19, SSTR4-1-2 or SSTR5-32-4 (10^9), was suspended in a phosphate buffered saline containing 5mM of EDTA (PBS-EDTA). The suspension was centrifuged. To the cell pellet was added 10 ml of a homogenation buffer solution for cells (10 mM NaHCO3, 5 mM EDTA, pH=7.5). The mixture was homogenized by a Politron homogenizer and centrifuged at 400×g for 15 minutes. The supernatant obtained was farther centrifuged at 100,000×g for an hour to obtain a precipitate of the membrane fraction. The precipitate was suspended in 2 ml of a buffer solution for assay ([…], 0.1% of BSA (bovine serum albumin) and […], 1 μ/ml of pepstatin, 20 μg/ml of leupeptin, 10 μg/ml of phosphoramide, pH=7.5). The suspension was centrifuged at […] for an hour. The membrane fraction recovered as precipitate was suspended again in 20 ml of buffer solution for assay. The suspension was placed in tubes and stored at −80° C. The suspension was thawed when used, and used at every use.
(§2) The membrane fraction prepared in Example 1 was diluted with a buffer solution for assay to adjust the concentration to 3 μg/ml. The diluate was placed in tubes each in quantity of 173 μl. To this were simultaneously added 2 μl of a solution of a compound in DMSO and 25μl of a 200pM radioisotope-labeled somatostatin (^125I-somatostatin: Amersham) solution. For measurement of the maximum binding, a reaction mixture added with 2 μl of DMSO and 25μl of a 200pM ^125I-somatostatin solution was prepared. For measurement of non-specific binding, a reaction mixture added with 2 μl of a 100 μM somatostatin solution diluted in DMSO and 25 μl of a 200pM ^125I-somatostatin solution was prepared at the same time. The mixtures were allowed to react at 25° C. for 60 minutes. Then, the reaction mixture was filtered by aspiration using a GF/B glass fiber filter paper (Whatman) treated with polyethylenimine. After filtration, the radioactivity of 125I-somatostatin remaining on the filter paper was measured by a γ-counter.
(§3) The binding rate (%) of each compound was calculated by the formula: […]
(§4) (where PBM: Percent maximum Binding, B: radioactivity when a compound was added, Bo: maximum binding radioactivity, NSB: non-specific binding radioactivity). The binding rates were calculated by changing the concentrations of the compound to obtain the 50% inhibiting concentration of the compound (IC50 value) by the Hil l plots.
(§5) The activities (IC50 value, μM) of the compounds for each human somatostatin receptor obtained by the above method are shown in the following Table 5.

[2] = target: T2, human somatostatin receptor SSTR3 (Homo sapiens, UniProt P32745); assay: as above; conditions: 125I-somatostatin binding, 25° C. for 60 minutes, read-out: Activities for human somatostatin receptor (IC50 value) SSTR3
T2 construct: expressed in transfected cells; host or cells: CHO (dhfr-) cells, strain SSTR3-15-19
T2 sequence (P32745 whole entry): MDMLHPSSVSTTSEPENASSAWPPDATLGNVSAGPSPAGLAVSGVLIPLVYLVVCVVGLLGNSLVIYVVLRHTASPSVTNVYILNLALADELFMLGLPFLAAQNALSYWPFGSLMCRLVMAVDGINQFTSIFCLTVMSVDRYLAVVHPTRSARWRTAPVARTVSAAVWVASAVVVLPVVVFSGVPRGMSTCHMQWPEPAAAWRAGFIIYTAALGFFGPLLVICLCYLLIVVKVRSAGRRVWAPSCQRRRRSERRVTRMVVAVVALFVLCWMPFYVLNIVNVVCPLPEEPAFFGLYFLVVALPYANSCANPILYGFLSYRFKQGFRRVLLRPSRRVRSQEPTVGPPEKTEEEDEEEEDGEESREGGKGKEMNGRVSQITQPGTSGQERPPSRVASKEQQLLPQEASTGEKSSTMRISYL
Procedure: as §1, §2, §3, §4, §5

[3] = target: T3, human somatostatin receptor SSTR4 (Homo sapiens, UniProt P31391); assay: as above; conditions: 125I-somatostatin binding, 25° C. for 60 minutes, read-out: Activities for human somatostatin receptor (IC50 value) SSTR4
T3 construct: expressed in transfected cells; host or cells: CHO (dhfr-) cells, strain SSTR4-1-2
T3 sequence (P31391 whole entry): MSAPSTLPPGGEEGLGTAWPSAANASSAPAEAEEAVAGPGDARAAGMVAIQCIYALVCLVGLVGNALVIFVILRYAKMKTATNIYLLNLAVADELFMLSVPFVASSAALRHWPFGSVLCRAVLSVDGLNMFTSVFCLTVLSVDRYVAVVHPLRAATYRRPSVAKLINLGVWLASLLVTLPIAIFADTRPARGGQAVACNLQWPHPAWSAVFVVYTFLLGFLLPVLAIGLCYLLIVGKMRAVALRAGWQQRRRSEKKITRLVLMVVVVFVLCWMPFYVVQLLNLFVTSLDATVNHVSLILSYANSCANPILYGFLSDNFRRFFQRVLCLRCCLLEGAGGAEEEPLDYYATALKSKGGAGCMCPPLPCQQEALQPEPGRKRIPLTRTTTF
Procedure: as §1, §2, §3, §4, §5

[4] = target: T4, human somatostatin receptor SSTR5 (Homo sapiens, UniProt P35346); assay: as above; conditions: 125I-somatostatin binding, 25° C. for 60 minutes, read-out: Activities for human somatostatin receptor (IC50 value) SSTR5
T4 construct: expressed in transfected cells; host or cells: CHO (dhfr-) cells, strain SSTR5-3-2-4 (also printed SSTR5-32-4)
T4 sequence (P35346 whole entry): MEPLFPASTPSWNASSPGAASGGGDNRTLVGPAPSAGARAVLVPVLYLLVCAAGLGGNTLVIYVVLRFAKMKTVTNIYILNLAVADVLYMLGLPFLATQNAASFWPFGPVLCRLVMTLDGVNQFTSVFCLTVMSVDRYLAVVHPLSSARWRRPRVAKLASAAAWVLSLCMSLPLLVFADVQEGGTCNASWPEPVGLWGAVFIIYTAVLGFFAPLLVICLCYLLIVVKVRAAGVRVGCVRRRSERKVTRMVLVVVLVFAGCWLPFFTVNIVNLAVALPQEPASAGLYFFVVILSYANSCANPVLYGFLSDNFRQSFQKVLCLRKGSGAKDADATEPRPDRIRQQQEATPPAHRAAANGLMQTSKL
Procedure: as §1, §2, §3, §4, §5

[5] = system: primary cell culture of the rat anterior pituitary; assay: Inhibition of growth hormone (GH) secretion from primary cell culture; type: cell-based; conditions: GHRH-stimulated, 37° C. for 3 hours; for EC50: Rattus norvegicus, GH by RIA, read-out: ED50 values, inhibition of GH secretion
Procedure: The anterior pituitaries were excised from the decapitated skull of 40 unanesthetized male rats of 8 weeks of age. The anterior pituitaries were placed in a laboratory dish containing the buffer A (consisting of 137 mM of sodium chloride, 5 mM of potassium chloride, 0.7 mM of disodium hydrogen phosphate, 25 mM of 2-[4-(2-hydroxyethyl)-1-piperazinyl]ethane sulfonic acid (HEPES) (pH 7.3), and 50 μg/ml of gentamicin sulfate] and washed once with the buffer A. Each anterior pituitary was cut into 4 pieces by scissors and washed twice again. The pieces of the anterior pituitaries were incubated in 30 ml of Enzyme Solution I [buffer A solution containing 0.4% of collagenase (Boehringer Mannheim), 0.4% of bovine serum albumin, 10 μg/ml of deoxyribonuclease (Sigma) and 0.2% of glucose] at 37° C. under shaking for 1 hour. After dispersion of the pieces of the anterior pituitaries by a Komagome pipette, the solution was centrifuged (480×g, for 6 minutes). The supernatant was discarded. The sediment was suspended in 30 ml of Enzyme Solution II [buffer A solution containing 0.25% of pancreatin (Sigma)] and incubated at 37° C. under shaking for 8 minutes. After adding 2 ml of fetal calf serum, the cell suspension was centrifuged (480×g, for 6 minutes) again and the supernatant was discarded. The sediment was suspended in 10 ml of Medium I [Dulbecco modified Eagle's Medium (DMEM) containing 10% of fetal calf serum, 20 mM of HEPES (pH 7.3), 50 U/ml of penicillin G and 50 μg/ml of streptomycin] and filtered through nylon mesh. The cells thus obtained were washed twice with 10 ml of Medium I. The number of the cells was counted, and the cells were suspended in Medium I in the cell density of 1.5×10^5 cells/ml. The aliquots of 1 ml each of the cell suspension were placed in the wells of 24-well plate and incubated at 37° C. for 3 days in the carbon dioxide incubator under 5% carbon dioxide-95% air environment. The cells were washed twice with 1 ml of Medium II (Medium I containing 0.2% bovine serum albumin instead of 10% fetal calf serum) and then incubated in 1 ml of Medium II for 1 hour. The supernatant was discarded. To each well of the 24-well plate 0.8 ml each of Medium II was added, and 0.1 ml of Medium II containing somatostatin-14 (SS-14) or the compound of Example 5 or the compound of Example 102 in the concentration of 10 times the final concentration and 0.1 ml of 10 nM growth hormone releasing hormone (GHRH) were added thereto. After incubation at 37° C. for 3 hours, 0.6 ml of the supernatant of the each well was collected to obtain a supernatant solution by the centrifugation on 1,000×g for 8 minutes. GH concentrations in the supernatant were determined by radioimmunoassay (RIA) kit of Amersham.

Row | Compound | IC50 [1] [nM] | IC50 [2] [nM] | IC50 [3] [nM] | IC50 [4] [nM] | GH secretion from the primary cell culture of rat anterior pituitary [5] | EC50 [5] [nM]
1 | NCc1cccc(C2OC(CC(=O)NCc3ccccc3F)C(=O)N(Cc3ccc(-c4ccccc4)cc3)c3ccc(Cl)cc32)c1 (stereo not drawn) [Example 5, 3,5-Trans-N-(2-fluorobenzyl)-5-(3-aminomethylphenyl)-1-(4-biphenylmethyl)-7-chloro-2-oxo-1,2,3,5-tetrahydro-4,1-benzoxazepine-3-acetamide•monohydrochloride] | 100 | 3 | 300 | 0.7 | inhibited dose-dependently | 8
2 | NCc1cccc(C2OC(CC(=O)NCc3ccccc3F)C(=O)N(Cc3ccc(O)cc3)c3ccc(Cl)cc32)c1 (stereo not drawn) [Example 102, 3,5-Trans-N-(2-fluorobenzyl)-5-(3-aminomethylphenyl)-7-chloro-1-(4-hydroxybenzyl)-2-oxo-1,2,3,5-tetrahydro-4,1-benzoxazepine-3-acetamide•monohydrochloride] | 60 | 80 | 300 | 0.1 | inhibited dose-dependently | 10
